Measurements from patent US20260347280A1, “DEUTERATED HINOKITIOL DERIVATIVES” (priority 2022, published 2026).
Entries after “also recorded” stand apart in the source; their conditions may differ. Values belong to the molecule of their own block, whether it stands above or below them.

What was measured:
[1] = compared with hinokitiol; cited from earlier work
[2] = Liposome efflux assay (Fe3+ liposomal efflux, cell-free iron efflux); assay type: biochemical; conditions: for iron mobilization capacity / cell-free iron transport, effect of deuteration: deuterated vs protio compound, cell-free iron efflux, 37 °C, 40 min; for iron transport capability at higher concentrations: Fe3+ liposomal efflux, 50-150 μM, compared with hinokitiol or Tri-Methyl
Protocol: After evaporation under a stream of nitrogen, films were placed under hi-vacuum for 18 hours to ensure quantitative solvent removal. […] LUVs were subjected to size exclusion chromatography, using a ~20 cm column of Sephadex® G-50 Medium resin that was hydrated in liposome outside buffer (600 mM sodium ascorbate, 50 mM MES/TRIS pH 7.0).
Determination of total phosphorous was performed utilizing the Bartlett Assay. Briefly, the LUV suspension was diluted 10-fold in liposome outside buffer, then 10 μL of this solution was placed in three 7 mL vials along with 10 μL of liposome outside buffer for background. […] The samples were then allowed to fully cool and diluted using 3.9 mL of Milli-Q water. […] of 2.5% w/v ammonium molybdate was then added, then the samples were vortexed, then […] of 10% w/v ascorbic acid was added. The samples were then re-vortexed, capped, and heated at 100 °C for seven minutes. The samples were allowed to fully cool then read at A820 and compared to a phosphorous standard curve to determine the total quantity of phosphorous.
16 mL of liposome suspension was created with the following components: […] of ferrozine solution (100× stock, 50 mM in liposome outside buffer), LUV suspension (to a final concentration of 1 mM phosphorous), and liposome outside buffer up to 16 mL. […] of liposome suspension was then added to a 96 well plate (NUM) using a multichannel pipettor. The plate was then placed in a plate reader and equilibrated at 37 °C for 5 minutes, then read for a baseline measurement. Following this equilibration, compound was added at the designated concentrations (40× stock in DMSO) using a multichannel pipettor, and the plate was then incubated at 37 °C for 40 min. Reads were taken every minute at A562 and the plate mixed at 220 rpm. Total iron efflux was determined via […]-iron complex signal. These experiments were performed in triplicate, with a minimum of two biological replicates.

[3] = Dynamic light scattering (aggregation); assay type: physicochemical; conditions: for aggregation tendency: aqueous media, in words
Protocol: Dynamic light scattering was performed on a Malvern Zetasizer Nano using disposable cuvettes. […] Compound at the specified concentration (from 1000× in DMSO), as well as equimolar FeCl3 (1000× in 0.1 M HCl) were added to this buffer. After addition, these compounds were vortexed for 30 sec, sonicated for one min, then further vortexed for 30 sec before a five-minute equilibration in the Zetasizer at 37 °C. All standard parameters were used, with each graph representing a minimum of thirty 10 second measurements. For count rate analysis, the raw count rate was utilized, accounting for any differences in attenuator position between samples.

[4] = tested on: divalent metal transporter 1 (DMT1−) deficient cells and animals; conditions: cited from earlier work
[5] = background; cited from earlier work
shDMT1-Caco-2 monolayer = experiment: Iron transport in differentiated shDMT1(-Caco-2) monolayers; assay type: cell-based
[6] = Complex formation with iron / crystallographic data; assay type: physicochemical
[7] = tested on: mitoferrin 1 (MFRN1−) deficient cells and animals; conditions: cited from earlier work
[8] = tested on: ferroportin 1 (FPN1−) deficient cells and animals; conditions: cited from earlier work

SMILES: CC(C)c1ccc(O)c(=O)cc1 [GT]
aggregation, previously shown [1]: less aggregation
iron mobilization capacity / cell-free iron transport, effect of deuteration [2]: no deuteration effect on cell-free iron transport

SMILES: [2H]C([2H])([2H])C([2H])(c1cccc(=O)c(O)c1)C([2H])([2H])[2H] [hinokitiol-d7, 2-hydroxy-4-(isopropyl-d7)-cyclohepta-2,4,6-trien-1-one]
aggregation by dynamic light scattering ([3]; 20-100 μM with equimolar iron, pH 7.0, 37 °C): aggregates less via lesser photon deflection counts and particle size
iron transport capability at higher concentrations [2]: significantly greater iron transport capability at higher concentrations (50-150 μM) when compared to hinokitiol

SMILES: CCCCc1cccc(=O)c(O)c1 [4 nBu, 2-hydroxy-4-butylcyclohepta-2,4,6-trien-1-one]
aggregation tendency [3]: highly aggregating
concentration of compound at which noticeable transport ceases ([2]; liposome efflux assay, due to higher order aggregation): 40 µM

SMILES: [2H]C([2H])([2H])C([2H])([2H])C([2H])([2H])C([2H])([2H])c1cccc(=O)c(O)c1 [4 nBu-d9, 2-hydroxy-4-(butyl-d9)cyclohepta-2,4,6-trien-1-one]
iron mobilization capacity / cell-free iron transport, effect of deuteration [2]: maintains transport levels at concentrations when the parent compound suffers from limiting higher order aggregation
iron mobilization capacity / cell-free iron transport, effect of deuteration ([2]; listed as 4-n-buytl-(d9)-tropolone): extends transport window
concentration of compound up to which noticeable transmembrane transport of iron is demonstrated ([2]; liposome efflux assay, before dropping to baseline): 75 µM

More lines, main results first:

aggregation tendency [3]: aggregates less
SMILES: Cc1cc(C)c(O)c(=O)c(C)c1 [Tri-Methyl]

aggregation tendency ([3]; listed as Hinokitiol): highly aggregative
complex formation with Fe(III) [6]: forms a 3:1 complex with Fe(III)
SMILES: CC(C)c1cccc(=O)c(O)c1 [hinokitiol]
restoration of iron homeostasis [4]: restores iron homeostasis
complex formation with iron [5]: reversibly forming a 3:1 complex with iron
aggregation tendency [3]: predisposed at higher concentrations to form higher-order aggregates; also recorded: formation of higher-order aggregates in aqueous media
iron transport / mobilization (shDMT1-Caco-2 monolayer): effectively mobilizes iron at low-to-intermediate concentrations; also recorded: at higher concentrations, a substantial decrease in transmembrane mobilizing activity was observed
restoration of iron homeostasis [7]: restores iron homeostasis
iron transport capability at higher concentrations [2]: begins to aggregate
restoration of iron homeostasis [8]: restores iron homeostasis
